A short description of series [1]: Solubility in water. It is filed as physicochemical.
In series [2] the test system is chronic pelvic pain/endometriosis. Briefly: Potaba protocol study: oral Potaba in women with chronic pelvic pain/endometriosis. It is filed as in vivo. The method, then: The total number of women under clinical examination was 212.
All of those who volunteered for the therapy protocol met the criteria of 10 points or more on the self-test, that threshold defining a subject who was at risk for endometriosis.
A pelvic pain assessment which was originated by the International Pelvic Pain Society© 1999 (IPPS) was also conducted. IPPS evaluated the volunteer subjects for the following information: pain, menses, bladder, bowel habits, gastro-intestinal/eating habits, health habits, coping mechanisms, a short form McGill questionnaire (psychological; level of depression assay), daily activities, personal history, surgical history, sexual history and physical history.
In addition to a careful review of the pre-test examinations of the prospective subjects, exclusion criteria were also established as a means of reducing unrelated influences into the test results.
Only one physician conducted the physical evaluation of each of the participants to ensure consistency throughout the study. In addition to repeated laboratory and thorough physical examinations, the examining physician personally discussed and recorded responses to questions about the presence or absence of side-effects and improvements in symptoms, if any. […] Although the subjects individual responses to questions regarding symptoms and particularly levels of pain experience throughout the test period inherently can include a subjective element, the questions were repetitiously and precisely posed to the subjects so as to prompt a consistent response minimally effected by the questioner's choice of words, tone, delivery, etc. The test subjects reported pelvic pain experience as a number selected between the levels of 1 to 10, with 1 being no pain experienced and 10 being the most severe level of pain.

Setting [3] is: 12 grams/day po, out of 25 participants.

Structures are written as SMILES.

Regarding `Nc1ccc(C(=O)O)cc1` [Potaba, aminobenzoate potassium], the solubility in water result in series [1] is reported as “highly soluble in water”. Moreover, in series [2] (setting [3]), the “Discontinued Potaba protocol (reason): nausea, No. of Study Participants” value is on record as 3 and the “Discontinued Potaba protocol (reason): rash, No. of Study Participants” value was determined as 2. Further, in series [2] (oral administration), the “incidence of drug interactions” value is reported as “low incidence of drug interactions”. Further, the “toxicity / safety of oral administration (result in words)” value in series [2] (oral administration, potassium) is “non-toxic and safe”.

The values are drawn from US20050175688A1 (priority 2004, published 2005).
